A melting point of 214 to 216 °C was found for `CC1(C)OC(=S)Nc2ccc(-c3coc(C#N)c3)cc21` [Example 63, 4-(4,4-Dimethyl-2-thioxo-1,4-dihydro-2H-3,1-benzoxazin-6-yl)-2-furonitrile] in this work. A melting point of 192 to 193 °C was found for `CC1(C)OC(=S)Nc2ccc(-c3cc(Br)cc(OC(F)(F)F)c3)cc21` [Example 29, 6-(3-Bromo-5trifluoromethoxyphenyl)-4,4-dimethyl-1,4-dihydro-2H-3,1-benzoxazine-2-thione] in this work. A melting point of 261 to 262 °C was found for `CC1(C)OC(=S)Nc2ccc(-c3ccc(C#N)[nH]3)cc21` [Example 18, 5(4,4-Dimethyl-2-thioxo-1,4-dihydro-2H-3,1-benzoxazin-6-yl)-1H-pyrrole-2-carbonitrile] in this work. With `CC1(C)OC(=S)Nc2ccc(-c3ccc(C#N)o3)cc21` [Example 34, 5-(4,4-Dimethyl-2-thioxo-1,4-dihydro-2H-3,1-benzoxazin-6-yl)-2-furonitrile] the melting point was 200 °C (dec.). A melting point of 202 to 203 °C was found for `CC1(c2ccccc2)OC(=S)Nc2ccc(-c3cccc(Cl)c3)cc21` (stereo not drawn) [Example 36, 6-(3-Chlorophenyl)-4-methyl-4-phenyl-1,4-dihydro-2H-3,1-benzoxazine-2-thione] in this work. A melting point of 196 to 197 °C was found for `CC1(C)OC(=S)Nc2ccc(-c3ccc(F)c(Cl)c3)cc21` [Example 61, 6-(3-Chloro-4-fluorophenyl)-4,4-dimethyl-1,4-dihydro-2H-3,1-benzoxazine-2-thione] in this work. A melting point of 171 to 172 °C was found for `CC1(C)OC(=S)Nc2ccc(-c3ccccc3Cl)cc21` [Example 53, 6-(2-Chlorophenyl)-4,4-dimethyl-1,4-dihydro-2H-3,1-benzoxazine-2-thione] in this work. A melting point of 174 to 175 °C was found for `CCCCc1cc(C#N)sc1-c1ccc2c(c1)C(C)(C)OC(=S)N2` [Example 64, 4-Butyl-5-(4,4-dimethyl-2-thioxo-1,4-dihydro-2H-3,1-benzoxazin-6-yl)thiophene-2-carbonitrile] in this work. A melting point of 183 to 184 °C was found for `Cc1cc(Br)cc(-c2ccc3c(c2)C(C)(C)OC(=S)N3)c1` [Example 28, 6-(3-Bromo-5-methylphenyl)-4,4-dimethyl-1,4-dihydro-2H-3,1-benzoxazine-2-thione] in this work. A melting point of 222 to 224 °C was found for `N#Cc1cccc(-c2ccc3c(c2)C2(CCCCC2)OC(=S)N3)c1` [Example 58, 3(1,2-Dihydro-2-thioxospiro[4H-3,1-benzoxazine4,1-cyclohexan]-6-yl)benzonitrile] in this work. A melting point of 252 to 253 °C was found for `CC1(C)OC(=S)Nc2ccc(-c3cncc(Br)c3)cc21` [Example 26, 6-(5Bromopyridin-3-yl)-4,4-dimethyl-1,4-dihydro-2H-3,1-benzoxazine-2-thione] in this work. A melting point of 171 to 173 °C was found for `CC1(C)OC(=S)Nc2ccc(-c3ccccc3F)cc21` [Example 44, 6-(2-Fluorophenyl)-4,4-dimethyl-1,4-dihydro-2H-3,1-benzoxazine-2-thione] in this work. A melting point of 221 to 222 °C was found for `CC1(C)OC(=S)Nc2ccc(-c3cc(F)cc(Br)c3)cc21` [Example 55, 6-(3-Bromo-5-fluorophenyl)-4,4-dimethyl-1,4-dihydro-2H-3,1-benzoxazine-2-thione] in this work. A melting point of 148 to 150 °C was found for `CCC1(CC)OC(=S)Nc2ccc(-c3cccc(Cl)c3)cc21` [Example 51, 6-(3-Chlorophenyl)-4,4-diethyl-1,4-dihydro-2H-3,1-benzoxazine-2-thione] in this work. A melting point of 206 to 208 °C was found for `CC1(C)OC(=S)Nc2ccc(-c3cc(Cl)cc(Cl)c3)cc21` [Example 32, 6-(3,5-Dichlorophenyl)-4,4-dimethyl-1,4-dihydro-2H-3,1-benzoxazine-2-thione] in this work. A melting point of 230 to 231 °C was found for `Cc1cc(C#N)cc(-c2ccc3c(c2)C(C)(C)OC(=S)N3)c1` [Example 31, 3-(4,4-Dimethyl-2-thioxo-1,4-dihydro-2H-3,1-benzoxazin-6-yl)-5-methylbenzonitrile] in this work. A melting point of 224 to 226 °C was found for `CC1(C)OC(=S)Nc2ccc(-c3cccc([N+](=O)[O-])c3)cc21` [Example 50, 4,4-Dimethyl-6-(3-nitrophenyl)-1,4-dihydro-2H-3,1-benzoxazine-2-thione] in this work. A melting point of 191 to 193 °C was found for `CC1(C)OC(=S)Nc2ccc(-c3cccc(Br)c3)cc21` [Example 65, 6-(3-Bromophenyl)-4,4-dimethyl-1,4-dihydro-2H-3,1-benzoxazine-2-thione] in this work. A melting point of 150 to 151 °C was found for `C=CCC1(C)OC(=S)Nc2ccc(-c3cccc(Cl)c3)cc21` (stereo not drawn) [Example 37, 4-Allyl-6-(3-chlorophenyl)-4-methyl-1,4-dihydro-2H-3,1-benzoxazine2-thione] in this work. A melting point of 232 to 233 °C was found for `N#Cc1ccc(-c2ccc3c(c2)C2(CCCCC2)OC(=S)N3)s1` [Example 60, 5-(1,2-Dihydro-2-thioxospiro[4H-3,1-benzoxazine-4,1-cyclohexan]-6yl)-2-thiophenecarbonitrile] in this work. A melting point of 249 to 251 °C was found for `CC1(C)OC(=S)Nc2ccc(-c3cc(Cl)cc(C#N)c3)cc21` [Example 38, 3-Chloro-5-(4,4-dimethyl-2-thioxo-1,4-dihydro-2H-3,1-benzoxazin-6-yl)benzonitrile] in this work. A melting point of 221 to 223 °C was found for `CC1(C)OC(=S)Nc2ccc(-c3ccc(F)cc3)cc21` [Example 46, 6(4-Fluorophenyl)-4,4-dimethyl-1,4-dihydro-2H-3,1-benzoxazine-2-thione] in this work. A melting point of 170 to 171 °C was found for `COc1cc(F)cc(-c2ccc3c(c2)C(C)(C)OC(=S)N3)c1` [Example 40, 6-(3-Fluoro-5methoxyphenyl)-4,4-dimethyl-1,4-dihydro-2H-3,1-benzoxazine-2-thione] in this work. A melting point of 212 to 213 °C was found for `CCn1c(C#N)ccc1-c1ccc2c(c1)C(C)(C)OC(=S)N2` [Example 23, 5-(4,4-dimethyl-2-thioxo-1,4-dihydro-2H-3,1-benzoxazin-6-yl)-1-ethyl-1H-pyrrole-2-carbonitrile] in this work. A melting point of 174 to 175 °C was found for `CCCc1cc(C#N)sc1-c1ccc2c(c1)C(C)(C)OC(=S)N2` [Example 62, 5-(4,4-Dimethyl-2-thioxo-1,4-dihydro-2H-3,1-benzoxazin6-yl)-4-propylthiophene2-carbonitrile] in this work. A melting point of 209 to 211 °C was found for `CC1(C)OC(=S)Nc2ccc(-c3ccc(F)c(F)c3)cc21` [Example 45, 6-(3,4-Difluorophenyl)-4,4-dimethyl-1,4-dihydro-2H-3,1-benzoxazine-2-thione] in this work. A melting point of 201 to 202 °C was found for `COc1cc(C#N)cc(-c2ccc3c(c2)C(C)(C)OC(=S)N3)c1` [Example 41, 3-(4,4-Dimethyl-2-thioxo-1,4-dihydro2H-3,1-benzoxazin-6-yl)-5-methoxybenzonitrile] in this work. A melting point of 221 to 222.5 °C was found for `CC1(C)OC(=S)Nc2ccc(Br)cc21` [Example 10, 6-Bromo-4,4-dimethyl-1,4-dihydro-benzo[d][1,3]oxazin-2-thione] in this work. A melting point of 180 to 181 °C was found for `CCC1(CC)OC(=S)Nc2ccc(-c3cccc([N+](=O)[O-])c3)cc21` [Example 35, 4,4Diethyl-6-(3-nitrophenyl)-1,4-dihydro-2H-3,1-benzoxazine2-thione] in this work. A melting point of 258 to 259 °C was found for `CC1(C)OC(=S)Nc2ccc(-c3cc(C#N)cs3)cc21` [Example 22, 5-(4,4-Dimethyl-2-thioxo-1,4-dihydro-2H-benzo[d][1,3]oxazin-6-yl)thiophene-3-carbonitrile] in this work. A melting point of 194 to 195 °C was found for `CC1(C)OC(=S)Nc2ccc(-c3sccc3C#N)cc21` [Example 66, 2-(4,4-Dimethyl-2-thioxo-1,4-dihydro-2H-3,1-benzoxazin-6-yl)thiophene-3-carbonitrile] in this work. A melting point of 216 to 217 °C was found for `CC1(C)OC(=S)Nc2c(Br)cc(-c3cc(F)cc(C#N)c3)cc21` [Example 49, 3-(8-Bromo-4,4-dimethyl-2-thioxo-1,4-dihydro-2H-3,1-benzoxazin-6-yl)-5-fluorobenzonitrile] in this work. A melting point of 165 to 167 °C was found for `CC(C)(C)OC(=O)n1c(C#N)ccc1-c1ccc2c(c1)C(C)(C)OC(=S)N2` [Example 17, tert-Butyl 2-cyano-5-(4,4-dimethyl-2-thioxo-1,4-dihydro-2H-3,1-benzoxazin-6-yl)-1H-pyrrole-1-carboxylate] in this work. A melting point of 197 to 198 °C was found for `CC1(C)OC(=S)Nc2ccc(-c3cccc(F)c3F)cc21` [Example 48, 6-(2,3-Difluorophenyl)-4,4-dimethyl-1,4-dihydro-2H-3,1-benzoxazine-2-thione] in this work. A melting point of 225 to 227 °C was found for `N#Cc1cc(-c2ccc3c(c2)C2(CCCCC2)OC(=S)N3)cs1` [Example 23, 4-(1,2-Dihydro-2-thioxospiro[4H-3,1-benzoxazin-4,1-cyclohexan]-6-yl)-2-thiophenecarbonitrile] in this work. A melting point of 173 to 174 °C was found for `CC1OC(=S)Nc2ccc(-c3cccc(F)c3)cc21` (stereo not drawn) [Example 15, 6-(3-fluorophenyl)-4-methyl-1,4-dihydro-2H-3,1-benzoxazine-2-thione] in this work. A melting point of 142 to 143 °C was found for `COc1cccc(-c2ccc3c(c2)C(C)(C)OC(=S)N3)c1` [Example 52, 6-(3-Methoxyphenyl)-4,4-dimethyl-1,4-dihydro-2H-3,1-benzoxazine-2-thione] in this work. A melting point of 235 to 237 °C was found for `N#Cc1cc(F)cc(-c2ccc3c(c2)C2(CCCCC2)OC(=S)N3)c1` [Example 30, 3-(1,2-Dihydro-2-thioxospiro[4H-3,1-benzoxazine-4,1-cyclohexan]-6-yl)-5-fluorobenzonitrile] in this work. A melting point of 199 to 201 °C was found for `Cc1cc(C#N)sc1-c1ccc2c(c1)C1(CCCCC1)OC(=S)N2` [Example 59, 5-(1,2-Dihydro-2-thioxospiro [4H-3,1-benzoxazine-4,1-cyclohexan]-6-yl)-4-methyl-2-thiophenecarbonitrile] in this work. A melting point of 224 to 225 °C was found for `CC1(C)OC(=S)Nc2ccc(-c3cc(F)cc(F)c3)cc21` [Example 39, 6-(3,5-Difluorophenyl)-4,4-dimethyl-1,4-dihydro-2H-3,1-benzoxazine-2-thione] in this work. A melting point of 194 to 195 °C was found for `CC1(C)OC(=S)Nc2ccc(-c3cccc(F)c3)cc21` [Example 42, 6-(3-Fluorophenyl)-4,4-dimethyl-1,4-dihydro-2H-3,1-benzoxazine-2-thione] in this work. A melting point of 242 to 244 °C was found for `CC1(C)OC(=S)Nc2ccc(-c3ccc(C#N)s3)cc21` [Example 56, 5-(4,4-Dimethyl-2-thioxo-1,4-dihydro-2H-3,1-benzoxazin-6-yl)thiophene-2-carbonitrile] in this work.

Source: patent US6436929B1 (Wyeth, priority 1999, dated 2002)
